Data set [1] has as its system Mus musculus. The data set is described as follows: Toxicity in ob/ob mouse assessed as change in body weight at 3 mg/kg administered via oral gavage daily for 4 days measured on day 5 relative to control. The conditions noted are these: in vivo, 96 h. It is filed as organism-based.
The target in data set [2] is T1, Peroxisome proliferator-activated receptor alpha (Homo sapiens) (UniProt Q07869).
T1 sequence (whole entry): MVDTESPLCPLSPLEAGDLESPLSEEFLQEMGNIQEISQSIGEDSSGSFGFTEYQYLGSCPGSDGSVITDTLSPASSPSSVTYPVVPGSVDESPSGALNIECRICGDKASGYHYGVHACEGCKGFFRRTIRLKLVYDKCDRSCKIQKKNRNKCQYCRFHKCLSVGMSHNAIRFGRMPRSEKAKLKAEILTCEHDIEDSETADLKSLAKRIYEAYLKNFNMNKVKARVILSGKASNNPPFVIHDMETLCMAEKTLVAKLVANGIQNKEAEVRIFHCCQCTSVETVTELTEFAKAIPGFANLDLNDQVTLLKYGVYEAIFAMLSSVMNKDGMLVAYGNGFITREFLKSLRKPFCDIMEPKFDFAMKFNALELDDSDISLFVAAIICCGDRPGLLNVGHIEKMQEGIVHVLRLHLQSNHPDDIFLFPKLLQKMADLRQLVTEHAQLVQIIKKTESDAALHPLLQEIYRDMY
The data set is described as follows: Transactivation of human Gal4-fused PPARalpha LBD expressed in African green monkey COS7 cells after 24 hrs by luciferase reporter gene assay relative to WY14643. It is filed as cell-based. In general terms: In a reporter assay the amount or activity of a reporter protein is the signal.

Data set [3] can be described thus: Modulation of SGK1 mRNA expression in HCCD cells at 20 uM after 24 hrs by RT-PCR method relative to control. It is filed as functional, Homo sapiens.
Data set [4] concerns the target T2, NAD-dependent protein deacetylase sirtuin-1 (Homo sapiens) (UniProt Q96EB6).
T2 sequence (whole entry): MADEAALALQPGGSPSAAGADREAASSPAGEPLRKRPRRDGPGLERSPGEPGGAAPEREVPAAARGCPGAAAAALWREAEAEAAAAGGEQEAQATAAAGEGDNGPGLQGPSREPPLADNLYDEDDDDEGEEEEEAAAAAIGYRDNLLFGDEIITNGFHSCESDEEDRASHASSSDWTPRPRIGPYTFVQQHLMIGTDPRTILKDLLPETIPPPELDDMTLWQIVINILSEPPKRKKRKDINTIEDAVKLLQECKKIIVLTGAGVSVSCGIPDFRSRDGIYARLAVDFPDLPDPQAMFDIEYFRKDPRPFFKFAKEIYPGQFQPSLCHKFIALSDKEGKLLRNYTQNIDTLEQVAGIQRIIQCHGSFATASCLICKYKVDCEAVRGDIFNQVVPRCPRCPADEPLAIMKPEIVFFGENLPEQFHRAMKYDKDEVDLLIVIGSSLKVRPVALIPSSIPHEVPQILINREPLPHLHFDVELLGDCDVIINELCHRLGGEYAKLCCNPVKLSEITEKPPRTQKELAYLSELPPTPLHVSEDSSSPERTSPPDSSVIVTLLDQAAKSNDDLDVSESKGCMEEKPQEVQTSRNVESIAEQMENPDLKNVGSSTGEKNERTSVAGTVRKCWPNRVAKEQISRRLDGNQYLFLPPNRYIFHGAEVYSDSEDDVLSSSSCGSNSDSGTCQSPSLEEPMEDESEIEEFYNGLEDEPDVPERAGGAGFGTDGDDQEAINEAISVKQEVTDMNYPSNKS
The data set is described as follows: Activation of recombinant human SIRT1 at 10 uM using C-terminal AMC labeled Arg-His-Lys-Lys (Ac) as substrate after 30 mins by FLUOR DE LYS fluorescent assay relative to control.

The target in data set [5] is T3, Peroxisome proliferator-activated receptor gamma (Homo sapiens, UniProt P37231).
T3 sequence (P37231 whole entry): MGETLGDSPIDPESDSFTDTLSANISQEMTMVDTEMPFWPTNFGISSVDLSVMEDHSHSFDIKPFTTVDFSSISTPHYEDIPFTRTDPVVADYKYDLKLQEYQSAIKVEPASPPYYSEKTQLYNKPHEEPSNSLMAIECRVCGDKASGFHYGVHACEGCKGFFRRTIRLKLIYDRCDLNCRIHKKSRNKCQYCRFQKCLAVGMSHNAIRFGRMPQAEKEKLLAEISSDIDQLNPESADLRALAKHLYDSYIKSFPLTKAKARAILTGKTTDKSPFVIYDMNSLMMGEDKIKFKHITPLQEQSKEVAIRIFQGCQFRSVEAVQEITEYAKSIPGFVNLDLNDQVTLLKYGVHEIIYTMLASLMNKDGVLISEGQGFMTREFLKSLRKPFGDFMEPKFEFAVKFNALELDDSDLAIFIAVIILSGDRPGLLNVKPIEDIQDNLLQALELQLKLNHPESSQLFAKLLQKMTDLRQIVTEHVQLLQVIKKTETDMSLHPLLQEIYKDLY
The data set is described as follows: Transactivation of human Gal4-fused PPARgamma LBD expressed in African green monkey COS7 cells after 24 hrs by luciferase reporter gene assay. It counts as cell-based. The conditions noted are these: read-out: EC50.

Data set [6] has as its target T4, Peroxisome proliferator-activated receptor delta (Homo sapiens) (UniProt Q03181).
T4 sequence (whole entry): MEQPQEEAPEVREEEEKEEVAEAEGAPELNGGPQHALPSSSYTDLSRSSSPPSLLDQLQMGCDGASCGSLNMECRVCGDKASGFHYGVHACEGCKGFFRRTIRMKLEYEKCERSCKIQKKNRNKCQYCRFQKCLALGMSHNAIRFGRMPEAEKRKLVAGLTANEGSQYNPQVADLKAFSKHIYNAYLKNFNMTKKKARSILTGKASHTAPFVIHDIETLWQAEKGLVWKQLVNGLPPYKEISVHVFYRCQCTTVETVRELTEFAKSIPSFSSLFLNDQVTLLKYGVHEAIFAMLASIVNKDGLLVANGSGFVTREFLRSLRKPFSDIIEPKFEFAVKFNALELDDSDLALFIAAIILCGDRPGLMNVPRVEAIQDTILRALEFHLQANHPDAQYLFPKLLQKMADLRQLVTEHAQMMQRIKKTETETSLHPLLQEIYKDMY
The experiment in a line: Transactivation of human PPARdelta at 10 uM.

Data set [7] deals with Mus musculus. The data set is described as follows: Anti-diabetic activity in ob/ob mouse assessed as change in serum triglyceride levels at 8.4 uM/kg administered via oral gavage daily for 4 days measured on day 5 relative to control. It counts as functional.
Data set [8] concerns Mus musculus. The experiment in a line: Anti-diabetic activity in ob/ob mouse assessed as change in serum insulin levels at 8.4 uM/kg administered via oral gavage daily for 4 days measured on day 5 relative to control. It is filed as functional.
Data set [9] has as its target T5, Peroxisome proliferator-activated receptor alpha (Homo sapiens, UniProt Q07869).
T5 sequence (Q07869 whole entry): T1 sequence (whole entry)
The data set is described as follows: Transactivation of human Gal4-fused PPARalpha LBD expressed in African green monkey COS7 cells after 24 hrs by luciferase reporter gene assay. It counts as cell-based.

The test system of data set [10] is Mus musculus. The data set is described as follows: Anti-diabetic activity in ob/ob mouse assessed as change in serum glucose levels at 8.4 uM/kg administered via oral gavage daily for 4 days measured on day 5 relative to control. It counts as functional.
In data set [11] the test system is Mus musculus. The experiment in a line: Toxicity in ob/ob mouse assessed as change in body weight at 8.4 uM/kg administered via oral gavage daily for 4 days measured on day 5 relative to control. It is filed as organism-based. The conditions noted are these: in vivo, 96 h, 8.4 µmol/kg.

Calls of active or inactive are those of the source. No cut-off for these calls is given here. A value given as a limit tells only on which side of the number the result lay.

Broadly, the EC50 is the concentration at which the effect is half-maximal.

For `Cc1oc(-c2ccccc2)nc1CCOc1ccc(C[C@H](Nc2ccccc2C(=O)c2ccccc2)C(=O)O)cc1` [FARGLITAZAR], the Activity is 162% in [1] and 969% in data set [3]. The Emax in [2] came to 231%.
For the compound `CN(CCOc1ccc(CC2SC(=O)NC2=O)cc1)c1ccccn1` (centres undefined) [ROSIGLITAZONE], the Activity stood at 100% in data set [1], 119% in data set [3] and 5% in data set [4].
Consider `COc1ccc(OC(=O)N(CC(=O)O)Cc2ccc(OCCc3nc(-c4ccccc4)oc3C)cc2)cc1` [MURAGLITAZAR], for which the Activity in data set [1] was found to be 206%; in data set [3] it was 178%. The Emax in data set [2] was 84%.
In the case of `CCOC(Cc1ccc(OCCn2c(=O)sc3cc(/C=C/c4cc(OC)cc(OC)c4)ccc32)cc1)C(=O)NC` (centres undefined), the EC50 in [5] was below 0.01 µM; in data set [9], 10 µM. In addition, the outcome in [6] was inactive. The Activity in data set [7] is -29%; in data set [8], -36%; in [10], -14%; in data set [11], 111%; in data set [3] it was -43%; in data set [4] it was 17%. The compound further yielded an Emax in data set [2] of 0%.
On to `COc1cc(/C=C/C(=O)c2ccc3c(c2)sc(=O)n3CCOc2ccc(CC(OCC(F)(F)F)C(=O)O)cc2)cc(OC)c1` (centres undefined), for which the EC50 came to 1 µM in data set [5] and 10 µM in data set [9]. Besides, in data set [6], the outcome was inactive. Also, the Activity in data set [7] was -18%; in data set [8], 28%; in [10], -14%; in data set [11] it was 142%; in data set [3], 820%; in data set [4] it was 24%. In data set [2], this compound came in with an Emax of 36%.
Turning to `CCOC(=O)C(Cc1ccc(OCCn2c(=O)sc3cc(/C=C/c4cc(O)cc(O)c4)ccc32)cc1)OCC` (centres undefined), the figures for the EC50 in data set [5] and in data set [9] were 0.01 µM and 10 µM, respectively. In [6], the outcome was inactive. Further, the Activity in [7] is -19%; in data set [8], -37%; in [10], -35%; in [11], 49%; in [3] it was 134%; in data set [4], 59%. This compound showed an Emax in [2] of 76%.
Take `CCOC(Cc1ccc(OCCn2c(=O)sc3cc(/C=C/c4cc(O)cc(O)c4)ccc32)cc1)C(=O)O` (centres undefined): the EC50 in [5] was determined as 1 µM; in data set [9], 10 µM. The outcome in data set [6] was inactive. Further, the Activity is -52% in [7]; -40% in [8]; -45% in [10]; 110% in data set [11]; -39% in data set [3]; 92% in [4]. The same compound returned an Emax in data set [2] of 29%.
`CCOC(=O)C(Cc1ccc(OCCn2c(=O)sc3cc(C(=O)/C=C/c4cc(OC)cc(OC)c4)ccc32)cc1)OCC` (centres undefined): the EC50 in data set [5] came to 0.03 µM; in data set [9], 10 µM. The outcome in [6] was inactive. For the same compound, the Activity was -34% in data set [7]; -7% in data set [8]; -25% in [10]; 112% in [11]; -14% in data set [3]; 2% in data set [4]. In data set [2], this compound returned an Emax of 0%.
